IC50 and inhibition data for nine compounds are collected here from ChEMBL document CHEMBL4184308, “Melanogenesis inhibitory pregnane glycosides from Cynanchum atratum” (Bioorg Med Chem Lett, 2018).

The source made the active and inactive calls. The calls are words filed in the database; no cut-off is given here.

Usually IC50 stands for the concentration that gives 50% inhibition.

Experiment [1] concerns B16. Nature of the experiment: Inhibition of melanin production in alpha-MSH-stimulated mouse B16 cells incubated for 24 hrs followed by alpha-MSH stimulation for 72 hrs in presence of compound. The class given is functional, cell-based.
Experiment [2] has as its target T1, Tyrosinase (Mus musculus) (UniProt P11344).
T1 sequence (whole entry): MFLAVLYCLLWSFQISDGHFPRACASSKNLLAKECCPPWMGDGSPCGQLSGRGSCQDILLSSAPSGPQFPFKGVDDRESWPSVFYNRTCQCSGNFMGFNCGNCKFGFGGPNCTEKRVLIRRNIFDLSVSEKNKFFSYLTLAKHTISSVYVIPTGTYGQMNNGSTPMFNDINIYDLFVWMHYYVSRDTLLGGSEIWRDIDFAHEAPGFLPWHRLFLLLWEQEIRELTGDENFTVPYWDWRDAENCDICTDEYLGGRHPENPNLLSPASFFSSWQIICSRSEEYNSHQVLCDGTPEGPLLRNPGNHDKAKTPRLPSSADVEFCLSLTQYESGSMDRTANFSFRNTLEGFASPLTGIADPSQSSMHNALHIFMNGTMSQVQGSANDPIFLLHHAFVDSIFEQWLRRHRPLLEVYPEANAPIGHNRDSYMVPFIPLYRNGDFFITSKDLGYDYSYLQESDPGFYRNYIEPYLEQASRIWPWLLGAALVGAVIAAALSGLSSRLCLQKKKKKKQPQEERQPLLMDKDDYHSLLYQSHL
Nature of the experiment: Inhibition of mouse tyrosinase.

The target of experiment [3] is T1, Tyrosinase (Mus musculus). Nature of the experiment: Inhibition of mouse B16 cells derived tyrosinase at 30 uM.

As for `CO[C@H]1[C@@H](O)[C@H](O[C@H]2CC[C@@]3(C)C(=CC[C@H]4C(=O)O[C@@H]5CO[C@]6(C)OC=C(CC[C@@H]43)[C@H]56)C2)O[C@H](C)[C@H]1O[C@H]1C[C@H](OC)[C@H](O)[C@H](C)O1`, in experiment [1], the IC50 was 19 µM and the inhibition entry was “Dose-dependent effect”.
Regarding `CC(=O)c1cc(O)ccc1O`, in experiment [2], the inhibition entry was “Active”.
In the case of `CO[C@@H]1[C@@H](O)[C@H](O[C@H]2CC[C@@]3(C)C(=CC[C@H]4C(=O)O[C@@H]5CO[C@]6(C)OC(=O)/C(=C/C[C@@H]43)[C@H]56)C2)O[C@H](C)[C@H]1O`, in experiment [1], the IC50 was greater than 50 µM.
Turning to `CC(=O)c1c(O)cccc1O`, in experiment [2], the inhibition result was “Active”.
As for `CO[C@H]1O[C@@]2(C)OC[C@H]3OC(=O)[C@@H]4CC=C5C[C@@H](O[C@@H]6O[C@H](C)[C@@H](O)[C@H](OC)[C@H]6O)CC[C@]5(C)[C@H]4C/C=C/1[C@H]32`, the IC50 in experiment [1] was 41 µM.
For the compound `CO[C@H]1C[C@H](O[C@@H]2[C@H](C)O[C@@H](O[C@H]3[C@@H](OC)C[C@H](O[C@@H]4CC5=CC[C@H]6C(=O)[C@@](C)(C7=CC(=O)O[C@H]7C)CC[C@@H]6[C@@]5(C)C[C@H]4O)O[C@@H]3C)C[C@@H]2OC)O[C@H](C)[C@H]1O`, in experiment [1], the IC50 was 21 µM and the inhibition entry was “Dose-dependent effect”. Also, in experiment [3], the inhibition entry was “inactive”.
Consider `CO[C@H]1C[C@H](O[C@@H]2[C@H](C)O[C@@H](O[C@H]3[C@@H](OC)C[C@H](O[C@@H]4CC5=CC[C@H]6C(=O)[C@@](C)(C7=CC(=O)O[C@@H]7C)CC[C@@H]6[C@@]5(C)C[C@H]4O)O[C@@H]3C)C[C@@H]2OC)O[C@H](C)[C@H]1O`, for which, in experiment [1], the IC50 was found to be 33 µM and the inhibition result was “Dose-dependent effect”.
The corresponding values for `CO[C@H]1[C@@H](O)[C@H](O[C@H]2CC[C@@]3(C)C(=CC[C@H]4C(=O)O[C@@H]5CO[C@]6(C)OC=C(CC[C@@H]43)[C@H]56)C2)O[C@H](C)[C@H]1O[C@H]1C[C@H](OC)[C@H](O[C@H]2C[C@H](OC)[C@H](O)[C@@H](C)O2)[C@H](C)O1` are 4 µM and “Dose-dependent effect”.
Regarding `CO[C@H]1C[C@H](O[C@@H]2CC3=CC[C@H]4C(=O)[C@@](C)(C5=CC(=O)O[C@H]5C)CC[C@@H]4[C@@]3(C)C[C@H]2O)O[C@H](C)[C@H]1O`, the IC50 in experiment [1] is greater than 50 µM.
